What was measured:
[1] = tested on: induced pluripotent stem cell-derived myoblasts; experiment: PAX7 mRNA expression in induced pluripotent stem cell-derived myoblasts; type: cell-based, human; conditions: 20 ng/ml bFGF, 3 μM CHIR99021, 2.5 μg/ml DLL1, alone or combined; vs untreated control (FIG. 1)
[2] = tested on: induced pluripotent stem cell-derived myotubes; experiment: qPCR screen of myogenic differentiation markers, 70 small molecules; type: cell-based, human; conditions: for MyoD, MyoG and MYHC (myosin heavy chain) expression: each individually, during drug-induced myogenesis from human iPSC (FIG. 9); for expression of differentiated myocyte markers MYOG, MYHC, MYH3, MYH8 and adult myotube markers MYH7, MYH2, MYH1: screen, vs untreated control (FIG. 9)
Method: FIG. 9 is a heat map showing the levels of MYOG, MYHC, MYH3, MYH8, MYH7, MYH2, MYH1 expression in induced pluripotent stem cell-derived myotubes after screening with 70 different small molecules related to the metabolomics findings, compared to an untreated control group.
Thus carnitine to facilitate fatty acid oxidation, the fatty acids linoleate, arachidonate and palmitate to fuel fatty acid oxidation were tested. It was also tested whether statin inhibitors of steroid synthesis, such as fluvastatin, and steroids like testosterone or progesterone could boost human myotube differentiation. Against this background, a variety of other small molecule drugs and metabolites were also screened, including OxPhos inhibitors and vitamins, to test their effects on myotube differentiation. A qPCR screen was then performed for various myogenic differentiation markers on human induced pluripotent stem cell-derived myoblasts exposed to these 70 conditions (FIG. 9).

[3] = tested on: human induced pluripotent stem cell-derived myoblasts; experiment: qPCR screen of lineage markers (OCT3/4, NCAM, AFP, PAX7), 70 small molecules; type: cell-based; conditions: vs untreated control (FIG. 3); for PAX7 mRNA expression: during FGF/Wnt/Notch-induced myogenesis
Method: FIG. 3 is a heat map showing the levels of OCT3/4, NCAM, AFP and PAX7 mRNA expression in induced pluripotent stem cell-derived myoblasts after screening with 70 different small molecules related to the metabolomics findings, compared to an untreated control group.
Thus, the adenylyl cyclase agonist Forskolin was tested to induce cAMP synthesis, and cobalamin was administered to see if these compounds boosted the expansion of human myoblasts. It was also tested whether glutamine, hypoxanthine and thymidine—all of which are rate-limiting for nucleotide synthesis—could boost human myoblast expansion. Against this background, a variety of other small molecule drugs and metabolites were screened, including amino acids and fatty acids, thereby testing their effects on myoblast expansion. A real-time polymerase chain reaction (qPCR) screen was then performed for various lineage markers (pluripotency marker OCT3/4, neuromuscular marker NCAM, endoderm marker AFP, muscle marker Pax7) on human induced pluripotent stem cell-derived myoblasts exposed to these 70 conditions (FIG. 3).

Compound: Cc1cnc(-c2cnc(NCCNc3ccc(C#N)cn3)nc2-c2ccc(Cl)cc2Cl)[nH]1 [CHIR99021, 6-[[2-[[4-(2,4-dichlorophenyl)-5-(5-methyl-1H-imidazol-2-yl)-2 pyrimidinyl]amino]ethyl]amino]-3-pyridinecarbonitrile, reference compound]
- PAX7 mRNA expression [1]: increase in PAX7 expression

Compound: CCCCC/C=C\C/C=C\CCCCCCCC(=O)O [linoleic acid]
- MyoD, MyoG and MYHC (myosin heavy chain) expression [2]: specifically increase
- expression of differentiated myocyte markers MYOG, MYHC, MYH3, MYH8 and adult myotube markers MYH7, MYH2, MYH1 [2]: increase expression

Compound: Cc1cn([C@H]2C[C@H](O)[C@@H](CO)O2)c(=O)[nH]c1=O [thymidine]
- PAX7 mRNA expression [3]: specifically increase

Compound: cobalamin [vitamin B12]
- PAX7 mRNA expression [3]: increase
- PAX7 mRNA expression ([3]; listed as cobalamin): specifically increase
- AFP (endoderm marker) mRNA expression [3]: without increasing
- NCAM (neuromuscular marker) mRNA expression [3]: increase
- OCT3/4 (pluripotency marker) mRNA expression [3]: without increasing

Compound: CC(=O)OC(CC(=O)[O-])C[N+](C)(C)C (centres unmarked) [O-acetyl-carnitine]
- MyoD, MyoG and MYHC (myosin heavy chain) expression [2]: specifically increase

Compound: C[C@]12CC[C@H]3[C@@H](CCC4=CC(=O)CC[C@@]43C)[C@@H]1CC[C@@H]2O [testosterone, reference compound]
- MyoD, MyoG and MYHC (myosin heavy chain) expression [2]: specifically increase
- expression of differentiated myocyte markers MYOG, MYHC, MYH3, MYH8 and adult myotube markers MYH7, MYH2, MYH1 [2]: increase expression

Compound: O=c1[nH]cnc2nc[nH]c12 [hypoxanthine]
- PAX7 mRNA expression [3]: specifically increase

Compound: C[N+](C)(C)CC(O)CC(=O)[O-] (centres unmarked) [carnitine]
- MyoD, MyoG and MYHC (myosin heavy chain) expression [2]: specifically increase
- expression of differentiated myocyte markers MYOG, MYHC, MYH3, MYH8 and adult myotube markers MYH7, MYH2, MYH1 [2]: increase expression

Compound: bFGF: FGF2 (basic fibroblast growth factor), FGF signalling agonist
- PAX7 mRNA expression [1]: increase in PAX7 expression

Compound: NC(=O)CC[C@H](N)C(=O)O [glutamine]
- PAX7 mRNA expression [3]: specifically increase
- AFP (endoderm marker) mRNA expression [3]: without increasing
- NCAM (neuromuscular marker) mRNA expression [3]: increase
- OCT3/4 (pluripotency marker) mRNA expression [3]: without increasing
